Entries after “also recorded” stand apart in the source; their conditions may differ. Structures can show the parent of a compound that is named as a salt.
What was measured:
[1] = system: failing human right ventricular trabeculae; test: contractile response of isolated right ventricular trabeculae from failing human hearts; conditions: hydrochloride
Protocol: Nonfailing hearts were obtained from local potential organ donors whose hearts were not transplanted because of physical or ABO blood type incompatibility. Failing hearts were from patients with end-stage heart failure due to ischemic or non-ischemic dilated cardiomyopathies who underwent cardiac transplantation. The demographic characteristics of the hearts are provided in Results. The contractile response of isolated, field stimulated, human trabeculae was assessed as previously described {1755; a-c}. Trabeculae of uniform size (1 to 2×6 to 8 mm) were mounted in 80 ml muscle bath chambers in Tyrode's solution at pH 7.45 bubbled with 95% O2-5% CO2 at 36^0. After equilibration, a tension of 75% of Lmax was applied to each individual trabeculum. Field-stimulation by a 5-ms pulse at 10% above threshold was then applied, and after equilibration full dose-response curves to isoproterenol, bucindolol or xamoterol were performed using the indicated concentrations and application of increasing doses every 5 minutes. In experiments in which forskolin was used to enhance signal transduction {e,f}, 10^−6 M of this adenylyl cyclase activator was applied to the tissue baths 15-20 minutes prior to the performance of dose-response curves, and allowed to achieve stability of tension response. Systolic tension at each dose was calculated as the stimulated tension in mN/mm^2 minus baseline tension. The maximum tension, concentration of isoproterenol that produced 50% of the maximum developed tension (EC50) and curve slope were computed by nonlinear repeated measures analysis of covariance. […] Statistical methods were employed as described in Examples 3 and 4.

[2] = system: patients with Class III/IV heart failure; conditions: cited from earlier work
[3] = system: advanced heart failure patients; test: proposed bucindolol vs metoprolol CR/XL trial (Study Design II); format: in vivo, human
Excerpt: In Study Design II (FIG. 28) for an additional study design, patients with symptomatic and advanced heart failure (reinforced by the heart failure hospitalization history over the preceding year; therefore, patients who are Class II at the time of screening are allowed in the trial) and LVEFs≦0.35 (the general description of the BEST Trial population) are initially screened for the absence of the α2c 322-325 DEL polymorphism, in the carrier state (either heterozygous or homozygous). […]
The primary endpoint of the trial is noninferiority against metoprolol CR/XL (TOPROL-XL), using the 95% upper confidence limit (UCL) of the time to mortality plus heart failure hospitalization endpoint hazard ratio that was measured in the MERIT-HF trial (Hjalmarson et al. 2000). […] The 95% upper confidence limit for the hazard ratio (UCL) for bucindolol:metoprolol CR/XL (“noninferiority margin”) has been determined from the formula (Hasselblad et al., 2001) {(UCL bucindolol:metoprolol CR/XL)*(UCL metoprolol CR/XL:placebo)≦1.0}; using the MERIT-HF entire cohort UCL of 0.80 for metoprolol:placebo yields x*0.80≦1.0, or a noninferiority margin x≦1.25. […]

SMILES: CC(C)(Cc1c[nH]c2ccccc12)NCC(O)COc1ccccc1C#N (stereo not drawn) [bucindolol, (2-{2-hydroxy-3{{2-(3-indolyl)-1,1-dimethylethyl}amino}propoxy}-benzonitrile hydrochloride)]
- intrinsic sympathomimetic activity (increase in force) ([1]; failing hearts, with and without forskolin): no significant increase in force development; also recorded: no evidence of ISA
- inotropic effect on systolic force (dose-response curve slope) ([1]; β1AR Arg/Arg, forskolin pretreatment): inverse agonist; also recorded: negative curve slope
- inotropic effect on systolic force (dose-response curve slope) ([1]; β1AR Gly carriers, forskolin pretreatment): neutral antagonist; also recorded: not different from 0
- inotropic effect on systolic force (dose-response curve slope) ([1]; β1AR Gly carriers, without forskolin): inverse agonist; also recorded: negative inotropic effect
- HF Hospitalization hazard ratio, bucindolol vs placebo ([2]; BEST entire cohort (n = 2708)): 0.78; 1045 Ev
- Mortality + HF Hospitalization hazard ratio, bucindolol vs placebo ([2]; BEST entire cohort (n = 2708)): 0.81; 1421 Ev
- reduction in all-cause mortality ([2]; BEST entire cohort): 10%
- reduction in mortality or heart failure hospitalization ([2]; BEST entire cohort): 19%
- reduction in event rate (death or heart failure hospitalization) ([2]; Class III patients, overall): 22%
- increase in combined endpoint of death or heart failure hospitalization ([2]; Class IV patients, first 6 months of treatment): 1.7 fold
- expected hazard ratio bucindolol vs. metoprolol CR/XL, mortality plus HF hospitalization ([3]; α2c WT/WT U.S. population, 0.72/0.84): 0.86
- expected hazard ratio bucindolol:metoprolol CR/XL, mortality+HF hospitalizations ([3]; β1-389 Arg/Arg + α2c wild type vs MERIT U.S. data, 0.61/0.84): 0.73

Source: patent US8093286B2, “Methods for treatment with bucindolol based on genetic targeting” (The Regents of the University of Colorado, a body corporate, priority 2004, dated 2012)
